Data on two compounds can be found in ChEMBL document CHEMBL1155648, “Three new arylobenzofurans from Onobrychis ebenoides and evaluation of their binding affinity for the estrogen receptor” (J Nat Prod, 2000).

pIC50: −log10 of the molar value.

The target in the experiment is T1, Estrogen receptor (Homo sapiens, UniProt P03372).
T1 sequence (P03372 whole entry): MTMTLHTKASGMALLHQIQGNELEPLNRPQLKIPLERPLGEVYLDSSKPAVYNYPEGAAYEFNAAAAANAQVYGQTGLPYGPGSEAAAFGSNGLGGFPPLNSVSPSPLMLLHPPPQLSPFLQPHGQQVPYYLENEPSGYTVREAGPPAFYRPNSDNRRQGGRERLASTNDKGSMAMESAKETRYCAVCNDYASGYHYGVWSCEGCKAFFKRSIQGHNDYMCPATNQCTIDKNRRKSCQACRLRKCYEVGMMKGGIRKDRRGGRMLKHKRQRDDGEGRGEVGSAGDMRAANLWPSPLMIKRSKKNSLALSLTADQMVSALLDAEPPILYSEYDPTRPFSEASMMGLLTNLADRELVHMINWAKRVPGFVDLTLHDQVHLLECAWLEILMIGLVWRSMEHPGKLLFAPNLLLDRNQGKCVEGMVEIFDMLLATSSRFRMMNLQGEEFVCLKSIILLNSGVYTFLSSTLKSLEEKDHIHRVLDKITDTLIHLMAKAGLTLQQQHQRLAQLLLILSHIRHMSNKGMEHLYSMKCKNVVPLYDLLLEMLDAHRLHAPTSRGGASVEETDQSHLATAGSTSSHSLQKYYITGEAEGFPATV
Description: Displacement of [3H]estradiol from estrogen receptor. (In general: In a radioligand displacement assay an active substance lowers the binding of a labelled ligand.)

In the case of `COc1cc(O)c2c(C=O)c(-c3ccc(O)cc3O)oc2c1` [EBENFURAN II], the pIC50 (commonly the IC50 on a negative log10 scale, so that one unit is a factor of ten) was 7.37.

The compound `COc1cc2oc(-c3ccc(O)cc3O)cc2cc1O` [EBENFURAN I] gave a pIC50 of 7.34.
